Columns and labels:
Format in all cases: in vivo
[1] = system: Abutilon theophrasti (ABUTH); test: Post-emergence herbicidal efficacy at 320 g/ha, greenhouse pot test; conditions: visual rating vs untreated control after about 3 weeks
Procedure: (§1) Seeds of mono- and dicotyledonous weed plants were placed in plastic pots in sandy loam soil (doubly sown with in each case one species of mono- or dicotyledonous weed plants per pot), covered with soil and cultivated in a greenhouse under controlled growth conditions. 2 to 3 weeks after sowing, the test plants were treated at the one-leaf stage. The compounds of the invention, formulated in the form of wettable powders (WP) or as emulsion concentrates (EC), were applied onto the green parts of the plants as aqueous suspension or emulsion with addition of 0.5% additive at a water application rate of 600 liters per hectare (converted). After the test plants had been kept in the greenhouse under optimum growth conditions for about 3 weeks, the activity of the preparations was rated visually in comparison to untreated controls. For example, 100% activity=the plants have died, 0% activity=like control plants. Tables […] 11 below show the effects of selected compounds of the general formula (I) according to Table 1 on various harmful plants and an application rate corresponding to 320 g/ha, which were obtained by the experimental procedure mentioned above.

[2] = system: Amaranthus retroflexus (AMARE); test: as above; conditions: visual rating vs untreated control after about 3 weeks
Procedure: as §1

Bassia scoparia (KCHSC) [3] = test: as above; conditions: visual rating vs untreated control after about 3 weeks
Procedure: as §1

Poa annua (POAAN) [4] = test: as above; conditions: visual rating vs untreated control after about 3 weeks
Procedure: as §1

Stellaria media (STEME) [5] = test: as above; conditions: visual rating vs untreated control after about 3 weeks
Procedure: as §1

Veronica persica (VERPE) [6] = test: as above; conditions: 320 g/ha, visual rating vs untreated control after about 3 weeks
Procedure: as §1

[7] = system: Abutilon theophrasti (ABUTH); test: Pre-emergence herbicide efficacy at 320 g/ha, greenhouse pot test; conditions: visual scoring vs untreated control after about 3 weeks
Description: (§2) Seeds of mono- and dicotyledonous weed plants were placed in plastic pots in sandy loam soil (doubly sown with in each case one species of mono- or dicotyledonous weed plants per pot) and covered with soil. The compounds of the invention, formulated in the form of wettable powders (WP) or as emulsion concentrates (EC), were then applied onto the surface of the covering soil as aqueous suspension or emulsion with addition of 0.5% additive at a water application rate of 600 liters per hectare (converted). After the treatment, the pots were placed in a greenhouse and kept under good growth conditions for the test plants. After about 3 weeks, the effect of the preparations was scored visually in comparison with untreated controls as percentages. For example, 100% activity=the plants have died, 0% activity=like control plants. Tables C1 to C12 below show the effects of selected compounds of the general formula (I) according to Table 1 on various harmful plants and an application rate corresponding to 320 g/ha, which were obtained by the experimental procedure mentioned above.

[8] = system: Amaranthus retroflexus (AMARE); test: as above; conditions: visual scoring vs untreated control after about 3 weeks
Description: as §2

Bassia scoparia (KCHSC) [9] = test: as above; conditions: dosage 1280 g/ha in Table C6, visual scoring after about 3 weeks
Description: as §2

[10] = system: Echinochloa crus-galli (ECHCG); test: as above; conditions: visual scoring vs untreated control after about 3 weeks
Description: as §2

[11] = system: Matricaria inodora (MATIN); test: as above; conditions: visual scoring vs untreated control after about 3 weeks
Description: as §2

Poa annua (POAAN) [12] = test: as above; conditions: visual scoring vs untreated control after about 3 weeks
Description: as §2

Setaria viridis (SETVI) = test: as above; conditions: visual scoring vs untreated control after about 3 weeks
Description: as §2

Stellaria media (STEME) [13] = test: as above; conditions: visual scoring vs untreated control after about 3 weeks
Description: as §2

Veronica persica (VERPE) [14] = test: as above; conditions: visual scoring vs untreated control after about 3 weeks
Description: as §2

Structure (SMILES)	Post-emergence efficacy against Abutilon theophrasti (ABUTH) [1] [%]	Post-emergence efficacy against Amaranthus retroflexus (AMARE) [2] [%]	Post-emergence efficacy against Bassia scoparia (KCHSC) (Bassia scoparia (KCHSC) [3]) [%]	Post-emergence efficacy against Poa annua (POAAN) (Poa annua (POAAN) [4]) [%]	Post-emergence action against Stellaria media (STEME) (Stellaria media (STEME) [5]) [%]	Post-emergence efficacy against Veronica persica (VERPE) (Veronica persica (VERPE) [6]) [%]	Pre-emergence efficacy against Abutilon theophrasti (ABUTH) [7] [%]	Pre-emergence efficacy against Amaranthus retroflexus (AMARE) [8] [%]	Pre-emergence efficacy against Bassia scoparia (KCHSC) (Bassia scoparia (KCHSC) [9]) [%]	Pre-emergence efficacy against Echinochloa crus-galli (ECHCG) [10] [%]	Pre-emergence efficacy against Matricaria inodora (MATIN) [11] [%]	Pre-emergence efficacy against Poa annua (POAAN) (Poa annua (POAAN) [12]) [%]	Pre-emergence efficacy against Setaria viridis (SETVI) (Setaria viridis (SETVI)) [%]	Pre-emergence efficacy against Stellaria media (STEME) (Stellaria media (STEME) [13]) [%]	Pre-emergence efficacy against Veronica persica (VERPE) (Veronica persica (VERPE) [14]) [%]
Cc1cc(C)c(-c2cc(C3CC3)no2)c(Oc2ncc(F)cn2)n1 [Example I-178]	90	100	90	100	100	100	100	100	90	100	100	100	100	100	100
Cc1cc(C)c(-c2cc(CC3CC3)no2)c(Oc2ncc(Cl)cn2)n1 [Example I-201]	90				90	90	90	90	90			100		90	
Cc1cc(C)c(-n2cc(I)cn2)c(Oc2ncc(Cl)cn2)n1 [Example I-295]		90	90		90	100	100	100	100	90	100	90	100	100	90
Cc1cc(C)c(-c2cc(C3(C)CC3)no2)c(Oc2ncc(F)cn2)n1 [Example I-299]	90				90	90	90	100		90		90	90	100	

From US20230303549A1, “SUBSTITUTED HETEROARYLOXYPYRIDINES, THE SALTS THEREOF AND THEIR USE AS HERBICIDAL AGENTS” (Bayer Aktiengesellschaft, priority 2020, published 2023)
